Converted amounts (≈) assume the structure as drawn. Blank lines part the entries; values can stand above or below the molecule they belong to.
Columns and labels:
[1] = tested on: L1210 leukemia cells; assay: Inhibiting proliferation of L1210 leukemia cell; type: cell-based; conditions: Mus musculus, 96 h, 1×10^5 cells/ml, RPMI with 10% FCS, 37° C., 4 days, trypan blue
Procedure: Measurement of the Action of Inhibiting Proliferation of L1210 Leukemia Cell
L1210 leukemia cells were added to an RPMI medium containing 10% FCS (fetal calf serum), and the concentration of the cells was adjusted to 1×10^5 cells/ml. Each of the test compounds shown in Table 5 was dissolved in 99.5% ethanol. Prior to use, the final concentration of the ethanol solution was adjusted to less than 0.1%, and it was added to the culture medium. The culture medium was then maintained at 37° C. in a stationary condition for 4 days. After the cultivation, the number of surviving cells was measured by dyeing with trypan blue. As a control, 0.1% ethanol was used. A dose-reaction curve was plotted from the ratios of proliferation against the control, and IC50 was determined.

[2] = Cyto protection: cytotoxicity on aortic smooth muscle cells; type: cell-based; conditions: aortic smooth muscle cells; rat cells, MEM containing 10% CS; read-out: LD50 Aortic smooth muscle cells
Procedure: (§1) Measurement of Cyto Protection
(§2) Stomach epithelial cells taken from a rabbit fetus and aortic smooth muscle cells from a rat were used as normal cells, and L1210 leukemia cells were used as cancer cells. The cytotoxicity of each of the compounds shown in Table 6 on the normal cells was xamined.
(§3) Specifically, the stomach epithelial cells were cultivated in DME containing 20% FCS, and the aortic smooth muscle cells were cultivated in MEM containing 10% CS. Each of the test compounds was dissolved in ethanol and added to the culture broth in an amount of 0.1%. The mixture was filtered through a millipore filter.
(§4) The cytotoxicities LD50) of each of the test compounds on the stomach epithelial cells and the aortic smooth muscle cells were determined. Furthermore, from the LFD50 values, the safety coefficient (LD50 on the normal cells/LD50 on the L1210 cells) was calculated, and the results are also shown in Table 6.

[3] = Acute toxicity; conditions: mouse, in vivo, iv, four weeks old LR strain male mice (SPF)
Procedure: Measurement of Acute Toxicity
The acute toxicity of one typical compound of this invention was measured by a customary method using four weeks old LR strain male mice (SPF).

[4] = Cyto protection: cytotoxicity on stomach epithelial cells; type: cell-based; conditions: stomach epithelial cells; rabbit fetus cells, DME containing 20% FCS; read-out: LD50 Stomach epitherial cells
Procedure: as §1, §2, §3, §4

[5] = tested on: L1210 leukemia cells; assay: Cyto protection: cytotoxicity on L1210 leukemia cells and safety coefficient; type: cell-based, mouse; conditions: for Safety coefficient: LD50 on the normal cells/LD50 on the L1210 cells
Procedure: as §1, §2
The cytotoxicities LD50) of each of the test compounds on the stomach epithelial cells and the aortic smooth muscle cells were determined.

[6] = tested on: aortic smooth muscle cells; assay: Cyto protection: cytotoxicity on aortic smooth muscle cells; type: cell-based; conditions: rat cells, MEM containing 10% CS
Procedure: as §1, §2, §3, §4

[7] = tested on: Stomach epithelial cells; assay: Cyto protection: cytotoxicity on stomach epithelial cells; type: cell-based; conditions: rabbit fetus cells, DME containing 20% FCS
Procedure: as §1, §2, §3, §4

[8] = tested on: Ehrlich ascites carcinoma cells; assay: Antitumor effect on Ehrlich ascites carcinoma in ICR mice; type: in vivo; conditions: 30 mg/kg/day i.p. (methyl ester) or 20 mg/kg/day i.p. (12-epimer) for 5 days; for average number of days of survival: from 24 hours after tumor inoculation
Procedure: Measurement of the Antitumor Effect On Ehrich Ascites Carcinoma
1×10^5 Ehrlich ascites carcinoma cells were intraperitoneally administred to ICR mice. After the lapse of 24 hours, 30 mg/kg/day of 7(E)-7,8-dehydroprostaglandin A1 methyl ester and 20 mg/kg/day of its 12-epimer were each intraperitoneally administered to the mice for 5 days. The periods of survival of these animals were examined.

[9] = tested on: mouse leukemia cell L1210; conditions: Biochem. Biophys. Res. Commn., 105, 956 (1982); cited from earlier work

IC50 [1]: 0.3 µg/mL (≈ 0.902 µM)
SMILES: CCCCCCC=CC1C=CC(=O)C1=CCCCCCC(=O)OC (stereo not shown) [4-(1-octenyl)-5-(6-methoxycarbonylhexylidene)-2-cyclopentenone]

IC50 [1]: 0.3 µg/mL (≈ 0.876 µM)
SMILES: COC(=O)CCCC#CC=C1C(=O)C=CC1C=CC(O)C1CCCC1 (stereo not shown) [4-(3-Hydroxy-3-cyclopentyl-1-propenyl)-5-(6-methoxycarbonyl-2-hexynylidene)-2-cyclopentenone]

IC50 [1]: 0.2 µg/mL (≈ 0.555 µM)
SMILES: COC(=O)CCCC#CC(O)C1C(=O)C=CC1C=CC(O)C1CCCC1 (stereo not shown) [4-(3-hydroxy-3-cyclopentyl-1-propenyl)-5-(1-hydroxy-6-methoxycarbonyl-2-hexyn-1-yl)-2-cyclopentenone]

IC50 [1]: 0.3 µg/mL (≈ 1.08 µM)
SMILES: CCCCC1C=CC(=O)C1=CCCCCCC(=O)OC (stereo not shown) [4-Butyl-5-(6-methoxycarbonylhexylidene)-2-cyclopentenone]

SMILES: CCCCC[C@H](O)/C=C/[C@H]1C=CC(=O)/C1=C/CCCCCC(=O)O [7(E)-7,8-Dehydroprostaglandin A1]
CC50 [2]: 2 to 5 µg/mL (≈ 5.98 to 14.9 µM)
LD50 [3]: 140 mg/kg
IC50 [1]: 0.4 µg/mL (≈ 1.2 µM)
CC50 [4]: 2 to 5 µg/mL (≈ 5.98 to 14.9 µM)
Safety coefficient [5]: 6-25
IC50 ([5]; Mus musculus, L1210, cancer cells, read-out: LD50 L1210 leukemia cells): 0.2 to 0.3 µg/mL (≈ 0.598 to 0.897 µM)

IC50 [1]: 0.7 µg/mL (≈ 1.99 µM)
SMILES: CCCCC[C@H](O)/C=C/[C@@H]1/C(=C\CCCCCC(=O)O)C(=O)C[C@H]1O [7(E)-7,8-Dehydroprostaglandin E1]

SMILES: CCCCCC(O)C=CC1C=CC(=O)C1=CCCCCCC(=O)O (stereo not shown) [12-Epimer of 7(E)-7,8-dehydroprostaglandin A1]
LD50 Aortic smooth muscle cells [6]: 1 to 2 µg/mL
LD50 Stomach epitherial cells [7]: 1 to 2 µg/mL
Safety coefficient [5]: 2.5-10
LD50 L1210 leukemia cells ([5]; cancer cells): 0.2 to 0.4 µg/mL

SMILES: CCCCC[C@H](O)/C=C/[C@@H]1C=CC(=O)/C1=C/CCCCCC(=O)OC [12-epi-(7E)-7,8-dehydro PGA1 methyl ester]
IC50 [1]: 0.2 µg/mL (≈ 0.574 µM)
increase of life span (ILS %) over the control [8]: 76.5%
ratio of survival for more than 60 days [8]: 1/6
average number of days of survival [8]: 33.0 ± 9.8 days

SMILES: CCCCC[C@H](O)/C=C/[C@H]1C=CC(=O)/C1=C/CCCCCC(=O)OC [(7E)-7,8-dehydro PGA1 methyl ester]
increase of life span (ILS %) over the control [8]: 65.8%
ratio of survival for more than 60 days [8]: 2/6
average number of days of survival [8]: 31 ± 1.9 days

SMILES: COC12C(COC(N)=O)C3=C(C(=O)C(C)=C(N)C3=O)N1CC1NC12 (stereo not shown) [Mytomycin C, reference compound]
CC50 [2]: 0.01 µg/mL (≈ 0.0299 µM)
CC50 [4]: 0.01 to 0.02 µg/mL (≈ 0.0299 to 0.0598 µM)

SMILES: CCCCC[C@H](O)/C=C/[C@H]1C(=O)C[C@H](O)[C@@H]1C/C=C\CCCC(=O)O [PGD2]
IC50 of PGD2 on L1210 cell [9]: 2.4 micrograms/ml

— patent US4766147A, “Novel 5-membered cyclic compounds, process for production thereof, and pharmaceutical use thereof” (priority 1982, dated 1988)
